Test results from patent US7563818B2, “Photosensitizer functionalised nanoparticles” (Cancer Research Technology Limited, priority 2001, dated 2009).
Where two headings read alike, the source gives them in different places.

Assays:
[1] = cited from earlier work
[2] = Fluorescence lifetime by time-correlated single photon counting; format: physicochemical
Description: Fluorescence lifetime (τ) measurements were obtained by using the method of time-correlated single photon counting. For both the free and bound phthalocyanine optimum fits (X2) were obtained for the double exponential and τ1 and τ2 values are shown in table 1.

[3] = Singlet oxygen quantum yield, method of Nonell and Braslavsky; format: physicochemical; details: for Increase in ΦΔ: addition of 1 mM TOAB to the free Pc
Protocol: Singlet oxygen quantum yields, ΦΔ, for both the free and bound Pc were determined (Table 1) using the method of Nonell and Braslavsky.^24 The Pc coated nanoparticles were referenced to perinapthenone in ethanol (ΦΔ=0.97)^25, whilst free Pc was referenced to perinapthenone and octa-decyl zinc phthalocyanine^17 in toluene (ΦΔ=1.0 and 0.7 respectively). After deoxygenation of the Pc samples no singlet oxygen could be detected. […] The value of ΦΔ of 0.45 for the free Pc in toluene is consistent with previous measurements of similar metallated Pcs.^26

[4] = Solubility in polar solvents; format: physicochemical; details: polar solvents (e.g. ethanol, methanol, DMSO)
Description: Transmission electron micrographs of the Pc-gold nanoparticles are consistent with those reported by several groups for other thiol-stabilized MPCs in that they show small, 2-4 nm, non-aggregated particles—FIG. 2. […] A similar change in solubility was recently reported by Imahori et al.^23 for a porphyrin self-assembled on gold nanoparticles used as an artificial photosynthetic material.

[5] = double exponential fit, free Pc in toluene, Pc-nanoparticles in ethanol
[6] = in toluene with addition of 1 mM TOAB

Row | Compound | ΦΔ singlet oxygen quantum yield of reference ([1]; in toluene) | ΦΔ singlet oxygen quantum yield of reference ([1]; in ethanol) | τ1 (yield) [2, 5] [%] | τ1 fluorescence lifetime [2, 5] [ns] | τ2 (yield) [2, 5] [%] | τ2 fluorescence lifetime [2, 5] [ns] | τ1 (yield) [2, 6] [%] | τ1 fluorescence lifetime [2, 6] [ns] | τ2 (yield) [2, 6] [%] | τ2 fluorescence lifetime [2, 6] [ns] | Increase in ΦΔ [3] | Increase in ΦΔ ([3]; listed as free phthaloyanine) | φΔ singlet oxygen quantum yield ([3]; free Pc in toluene, Pc-nanoparticles in ethanol, referenced to perinapthenone (and octa-decyl zinc phthalocyanine for free Pc)) | Solubility in polar solvents [4]
1 | octa-decyl zinc phthalocyanine | 0.7 |  |  |  |  |  |  |  |  |  |  |  |  | 
2 | O=C1C=Cc2cccc3cccc1c23 [perinapthenone] | 1.0 | 0.97 |  |  |  |  |  |  |  |  |  |  |  | 
3 | CCCCCCc1ccc(CCCCCC)c2c1-c1nc3nc(nc4[nH]c(nc5[nH]c(nc-2n1)c1c(CCCCCC)ccc(CCCCCC)c51)c1c(CCCCCC)ccc(CCCCCC)c41)-c1c(C)ccc(CCCCCCCCCCCS)c1-3 [Free Pc, 1,4,8, 11, 15, 18-hexahexyl-22-(11-mercaptoundecyl)-25-methyl phthalocyanine] |  |  | 91 | 2.1 | 9 | 1.11 | 76 | 0.7 | 24 | 1.7 | ca. 10% | about 10% | 0.45 | insoluble
